Like-named read-outs stand apart in the source and are kept apart here.
Assays:
Type in all cases: cell-based
[1] = system: Phospho-eIF2α (Ser51); assay: Phospho-eIF2α (Ser51) Sandwich ELISA in K562 cells; details: serum-free RPMI, 10 μM compound; for activity at 10 µM: Homo sapiens, K562, 6 h, control = 1, read-out: eIF2α phosphorylation, absorbance standardized to control (DMSO-treated) set to 1, at 10 μM
Description: Pathscan Phospho-eIF2α (Ser51) Sandwich ELISA Kit #7286 from Cell signaling was used. The K562 cell line was cultured in serum-free RPMI medium at 37° C. in the presence of 5% CO2. Cells were treated with test compounds at a concentration of 10 μM. Six hours after compound treatment, the cells were lysed with a lysis buffer included in the kit to obtain 50 μg of protein by quantification. Afterwards, ELISA assay was performed according to the manufacturer's protocol to obtain absorbance. The absorbance for each obtained compound was standardized to a value of which the control (DMSO-treated) is set to 1.

[2] = system: K562 cell line; assay: CCK-8 anti-proliferative assay, K562; details: Homo sapiens, 72 h, K562, culture for 3 days
Description: CCK-8 assay (cell counting kit-8 assay, Dojindo, Kumamoto, Japan) was performed. The K562 cell line was cultured in RPMI medium supplemented with 10% FBS and 1% ABAM at 37° C. in the presence of 5% CO2. Cells were treated with test compounds at concentrations of 0 μM, 1.25 μM, 2.5 μM, 5 μM, 10 μM, and 20 μM, respectively. After culture for 3 days, 10 μL of CCK-8 solution was treated and cultured for 4 hours. Subsequently, the absorbance was measured at 450 nm to obtain the IC50 value of each compound.
The experimental values for the K562 cell line are identical to biological Example 2.

[3] = system: PBMC (peripheral blood monocyte cells isolated from normal donors); assay: CCK-8 assay, PBMC (normal cells); details: for IC50: 72 h, PBMC normal cells, culture for 3 days, CCK-8, tested 0-20 μM; for SI (selectivity index): K562 cells compared to PBMC
Description: PBMC (peripheral blood monocyte cells isolated from normal donors) cell lines were dispensed in RPMI medium supplemented with 10% FBS and 1% ABAM at 37° C. in the presence of 5% CO2, and then the test compounds were treated at concentrations of 0 μM, 1.25 μM, 2.5 μM, 5 μM, 10 μM, and 20 μM, respectively. After culture for 3 days, 10 μL of CCK-8 solution was treated and cultured for 4 hours. Subsequently, the absorbance at 450 nm was measured to obtain the IC50 value of each compound.

[4] = CCK-8, Table 3 (identical to Example 2), tested 0-20 μM, read-out: IC50 K562

| Structure (SMILES) | activity at 10 µM [1] | IC50 ([2]; CCK-8, Table 2, read-out: IC50) | other results |
| --- | --- | --- | --- |
| N#Cc1ccc(O[C@H]2CC[C@H](Nc3c(Nc4cccc(Cl)c4)c(=O)c3=O)CC2)cc1 [Compound 19, 4-(((1,4-trans)-4-((2-((3-Chlorophenyl)amino)-3,4-dioxocyclobut-1-en-1-yl)amino)cyclohexyl)oxy)benzonitrile] | 111% | > 20 µM |  |
| O=c1c(Nc2cccc(Cl)c2)c(N[C@H]2CC[C@H](Oc3ccc([N+](=O)[O-])cc3)CC2)c1=O [Compound 20, 3-((3-Chlorophenyl)amino)-4-(((1,4-trans)-4-(4-nitrophenoxy)cyclohexyl)amino)cyclobut-3-ene-1,2-dione] | 190% | 16.1 µM | IC50 [2, 4]: 16.1 µM; IC50 [3]: 20 µM; SI (selectivity index) [3]: 1.40 |
| O=c1c(Nc2cccc(C(F)(F)F)c2)c(N[C@H]2CC[C@H](Oc3ccc(C(F)(F)F)cc3)CC2)c1=O [Compound 23, 3-(((1,4-trans)-4-(4-(Trifluoromethyl)phenoxy)cyclohexyl)amino)-4-((3-(trifluoromethyl)phenyl)amino)cyclobut-3-ene-1,2-dione] | 201% | 3.96 µM | IC50 [2, 4]: 3.96 µM; IC50 [3]: 10.8 µM; SI (selectivity index) [3]: 2.77 |
| CS(=O)(=O)c1ccc(O[C@H]2CC[C@H](Nc3c(Nc4cccc(C(F)(F)F)c4)c(=O)c3=O)CC2)cc1 [Compound 26, 3-(((1,4-trans)-4-(4-(Methylsulfonyl)phenoxy)cyclohexyl)amino)-4-((3-(trifluoromethyl)phenyl)amino)cyclobut-3-ene-1,2-dione] | 133% | > 20 µM |  |
| CC(C)(C)c1cccc(Nc2c(N[C@H]3CC[C@H](Oc4ccc(C(F)(F)F)cc4)CC3)c(=O)c2=O)c1 [Compound 28, 3-((3-(tert-Butyl)phenyl)amino)-4-(((1,4-trans)-4-(4-(trifluoromethyl)phenoxy)cyclohexyl)amino)cyclobut-3-ene-1,2-dione] |  | 6.8 µM | IC50 [2, 4]: 6.8 µM; IC50 [3]: 19.4 µM; SI (selectivity index) [3]: 2.86 |
| COc1cccc(Nc2c(N[C@H]3CC[C@H](Oc4ccc([N+](=O)[O-])cc4)CC3)c(=O)c2=O)c1 [Compound 35, 3-((3-Methoxyphenyl)amino)-4-(((1,4-trans)-4-(4-nitrophenoxy)cyclohexyl)amino)cyclobut-3-ene-1,2-dione] | 105% | > 20 µM |  |
| CS(=O)(=O)c1ccc(O[C@H]2CC[C@H](Nc3c(Nc4ccc(C(F)(F)F)cc4)c(=O)c3=O)CC2)cc1 [Compound 49, 3-(((1,4-trans)-4-(4-(Methylsulfonyl)phenoxy)cyclohexyl)amino)-4-((4-(trifluoromethyl)phenyl)amino)cyclobut-3-ene-1,2-dione] | 102% | > 20 µM |  |
| CS(=O)(=O)c1ccc(O[C@H]2CC[C@H](Nc3c(Nc4ccccc4F)c(=O)c3=O)CC2)cc1 [Compound 65, 3-((2-Fluorophenyl)amino)-4-(((1,4-trans)-4-(4-(methylsulfonyl)phenoxy)cyclohexyl)amino)cyclobut-3-ene-1,2-dione] |  |  | eIF2α phosphorylation, absorbance standardized to control (DMSO-treated) set to 1, at 10 μM ([1]; 6 hours, control = 1): 1.07 |
| O=c1c(Nc2ccccc2Cl)c(N[C@H]2CC[C@H](Oc3ccc(C(F)(F)F)cc3)CC2)c1=O [Compound 66, 3-((2-Chlorophenyl)amino)-4-(((1,4-trans)-4-(4-(trifluoromethyl)phenoxy)cyclohexyl)amino)cyclobut-3-ene-1,2-dione] | 159% |  |  |
| N#Cc1ccc(O[C@H]2CC[C@H](Nc3c(Nc4ccccc4Cl)c(=O)c3=O)CC2)cc1 [Compound 67, 4-(((1,4-trans)-4-((2-((2-Chlorophenyl)amino)-3,4-dioxocyclobut-1-en-1-yl)amino)cyclohexyl)oxy)benzonitrile] | 199% |  |  |
| O=c1c(Nc2ccccc2Cl)c(N[C@H]2CC[C@H](Oc3ccc([N+](=O)[O-])cc3)CC2)c1=O [Compound 68, 3-((2-Chlorophenyl)amino)-4-(((1,4-trans)-4-(4-nitrophenoxy)cyclohexyl)amino)cyclobut-3-ene-1,2-dione] | 209% |  |  |
| CS(=O)(=O)c1ccc(O[C@H]2CC[C@H](Nc3c(Nc4ccccc4Cl)c(=O)c3=O)CC2)cc1 [Compound 69, 3-((2-Chlorophenyl)amino)-4-(((1,4-trans)-4-(4-(methylsulfonyl)phenoxy)cyclohexyl)amino)cyclobut-3-ene-1,2-dione] | 101% |  |  |
| O=c1c(Nc2ccccc2C(F)(F)F)c(N[C@H]2CC[C@H](Oc3ccc(C(F)(F)F)cc3)CC2)c1=O [Compound 70, 3-(((1,4-trans)-4-(4-(Trifluoromethyl)phenoxy)cyclohexyl)amino)-4-((2-(trifluoromethyl)phenyl)amino)cyclobut-3-ene-1,2-dione] | 194% | > 20 µM |  |
| N#Cc1ccc(O[C@H]2CC[C@H](Nc3c(Nc4ccccc4C(F)(F)F)c(=O)c3=O)CC2)cc1 [Compound 71, 4-(((1,4-trans)-4-((3,4-Dioxo-2-((2-(trifluoromethyl)phenyl)amino)cyclobut-1-en-1-yl)amino)cyclohexyl)oxy)benzonitrile] | 180% | > 20 µM |  |
| O=c1c(Nc2ccccc2C(F)(F)F)c(N[C@H]2CC[C@H](Oc3ccc([N+](=O)[O-])cc3)CC2)c1=O [Compound 72, 3-(((1,4-trans)-4-(4-Nitrophenoxy)cyclohexyl)amino)-4-((2-(trifluoromethyl)phenyl)amino)cyclobut-3-ene-1,2-dione] | 149% | > 20 µM |  |
| CS(=O)(=O)c1ccc(O[C@H]2CC[C@H](Nc3c(Nc4ccccc4C(F)(F)F)c(=O)c3=O)CC2)cc1 [Compound 73, 3-(((1,4-trans)-4-(4-(Methylsulfonyl)phenoxy)cyclohexyl)amino)-4-((2-(trifluoromethyl)phenyl)amino)cyclobut-3-ene-1,2-dione] | 84% |  |  |
| CC(C)(C)c1ccccc1Nc1c(N[C@H]2CC[C@H](Oc3ccc(C#N)cc3)CC2)c(=O)c1=O [Compound 75, 4-(((1,4-trans)-4-((2-((2-(tert-Butyl)phenyl)amino)-3,4-dioxocyclobut-1-en-1-yl)amino)cyclohexyl)oxy)benzonitrile] | 162% |  |  |
| CC(C)(C)c1ccccc1Nc1c(N[C@H]2CC[C@H](Oc3ccc([N+](=O)[O-])cc3)CC2)c(=O)c1=O [Compound 76, 3-((2-(tert-Butyl)phenyl)amino)-4-(((1,4-trans)-4-(4-nitrophenoxy)cyclohexyl)amino)cyclobut-3-ene-1,2-dione] | 139% |  |  |
| COc1ccccc1Nc1c(N[C@H]2CC[C@H](Oc3ccc(C(F)(F)F)cc3)CC2)c(=O)c1=O [Compound 78, 3-((2-Methoxyphenyl)amino)-4-(((1,4-trans)-4-(4-(trifluoromethyl)phenoxy)cyclohexyl)amino)cyclobut-3-ene-1,2-dione] | 213% |  |  |
| COc1ccccc1Nc1c(N[C@H]2CC[C@H](Oc3ccc(C#N)cc3)CC2)c(=O)c1=O [Compound 79, 4-(((1,4-trans)-4-((2-((2-Methoxyphenyl)amino)-3,4-dioxocyclobut-1-en-1-yl)amino)cyclohexyl)oxy)benzonitrile] | 238% |  |  |
| COc1ccccc1Nc1c(N[C@H]2CC[C@H](Oc3ccc([N+](=O)[O-])cc3)CC2)c(=O)c1=O [Compound 80, 3-((2-Methoxyphenyl)amino)-4-(((1,4-trans)-4-(4-nitrophenoxy)cyclohexyl)amino)cyclobut-3-ene-1,2-dione] | 133% |  |  |
| COc1ccccc1Nc1c(N[C@H]2CC[C@H](Oc3ccc(S(C)(=O)=O)cc3)CC2)c(=O)c1=O [Compound 81, 3-((2-Methoxyphenyl)amino)-4-(((1,4-trans)-4-(4-(methylsulfonyl)phenoxy)cyclohexyl)amino)cyclobut-3-ene-1,2-dione] | 152% |  |  |
| COc1ccccc1Nc1c(N[C@H]2CC[C@H](Oc3ccc(S(N)(=O)=O)cc3)CC2)c(=O)c1=O [Compound 82, 4-(((1,4-trans)-4-((2-((2-Methoxyphenyl)amino)-3,4-dioxocyclobut-1-en-1-yl)amino)cyclohexyl)oxy)benzenesulfonamide] | 136% |  |  |
| N#Cc1cc(Nc2c(N[C@H]3CC[C@H](Oc4ccc([N+](=O)[O-])cc4)CC3)c(=O)c2=O)cc(C(F)(F)F)c1 [Compound 85, 3-((2-(((1,4-trans)-4-(4-Nitrophenoxy)cyclohexyl)amino)-3,4-dioxocyclobut-1-en-1-yl)amino)-5-(trifluoromethyl)benzonitrile] | 116% | > 20 µM |  |

Source: patent US20240261249A1, “NOVEL SQUARAMIDE DERIVATIVE AND USE THEREOF” (PUSAN NATIONAL UNIVERSITY INDUSTRY-UNIVERSITY COOPERATION …, priority 2021, published 2024)
